Results from ChEMBL document CHEMBL5346921, “Discovery of novel benzamide derivatives bearing benzamidophenyl and phenylacetamidophenyl scaffolds as potential antitumor agents via targeting PARP-1” (Eur J Med Chem, 2023).
Activity calls are given as the source filed them. No cut-off for these calls is given here.

Tests used:
[1] = test system: DLD-1; assay: Antiproliferative activity against human DLD-1 cells assessed as reduction in cell viability incubated for 48 hrs by MTT assay; assay type: functional, cell-based; conditions: DLD-1, 48 h
[2] = Cytotoxicity against human NCM460 cells assessed as reduction in cell viability incubated for 48 hrs by MTT assay; assay type: toxicity, cell-based
[3] = Selectivity index, ratio of IC50 for cytotoxicity against human NCM460 cells to IC50 for antiproliferative activity against human HCT-116 cells; assay type: toxicity, cell-based; conditions: NCM460 cells and HCT-116 cells, read-out: Ratio IC50
[4] = test system: HCT-116; assay: cells; conditions: Homo sapiens, HCT-116, 48 h
[5] = test system: SW480; assay: cells; conditions: Homo sapiens, SW480, 48 h
Description: Antiproliferative activity against human SW480 cells assessed as reduction in cell viability incubated for 48 hrs by MTT assay

[6] = biological target: Poly [ADP-ribose] polymerase 1 (Homo sapiens, UniProt P09874); assay: Inhibition of human PARP-1 by ELISA
[7] = biological target: Poly [ADP-ribose] polymerase 2 (Homo sapiens, UniProt Q9UGN5); assay: Inhibition of human PARP-2 by ELISA
[8] = test system: HCT-116; assay: Induction of mitochondrial membrane potential loss in human HCT-116 cells assessed as increase in monomer JC-1 level by measuring green fluorescence intensity at 15 uM incubated for 48 hrs by immunofluorescence analysis; assay type: functional, cell-based
[9] = test system: HCT-116; assay: Induction of mitochondrial membrane potential loss in human HCT-116 cells assessed as JC-1 aggregate level by measuring red fluorescence intensity at 15 uM incubated for 48 hrs by JC-1 staining based flow cytometry (reference value: 96.72%); assay type: functional
[10] = test system: HCT-116; assay: Induction of mitochondrial membrane potential loss in human HCT-116 cells assessed as JC-1 monomer level by measuring green fluorescence intensity at 15 uM incubated for 48 hrs by JC-1 staining based flow cytometry (reference value: 3.28%); assay type: functional

Chain of Poly [ADP-ribose] polymerase 1 (P09874 whole entry): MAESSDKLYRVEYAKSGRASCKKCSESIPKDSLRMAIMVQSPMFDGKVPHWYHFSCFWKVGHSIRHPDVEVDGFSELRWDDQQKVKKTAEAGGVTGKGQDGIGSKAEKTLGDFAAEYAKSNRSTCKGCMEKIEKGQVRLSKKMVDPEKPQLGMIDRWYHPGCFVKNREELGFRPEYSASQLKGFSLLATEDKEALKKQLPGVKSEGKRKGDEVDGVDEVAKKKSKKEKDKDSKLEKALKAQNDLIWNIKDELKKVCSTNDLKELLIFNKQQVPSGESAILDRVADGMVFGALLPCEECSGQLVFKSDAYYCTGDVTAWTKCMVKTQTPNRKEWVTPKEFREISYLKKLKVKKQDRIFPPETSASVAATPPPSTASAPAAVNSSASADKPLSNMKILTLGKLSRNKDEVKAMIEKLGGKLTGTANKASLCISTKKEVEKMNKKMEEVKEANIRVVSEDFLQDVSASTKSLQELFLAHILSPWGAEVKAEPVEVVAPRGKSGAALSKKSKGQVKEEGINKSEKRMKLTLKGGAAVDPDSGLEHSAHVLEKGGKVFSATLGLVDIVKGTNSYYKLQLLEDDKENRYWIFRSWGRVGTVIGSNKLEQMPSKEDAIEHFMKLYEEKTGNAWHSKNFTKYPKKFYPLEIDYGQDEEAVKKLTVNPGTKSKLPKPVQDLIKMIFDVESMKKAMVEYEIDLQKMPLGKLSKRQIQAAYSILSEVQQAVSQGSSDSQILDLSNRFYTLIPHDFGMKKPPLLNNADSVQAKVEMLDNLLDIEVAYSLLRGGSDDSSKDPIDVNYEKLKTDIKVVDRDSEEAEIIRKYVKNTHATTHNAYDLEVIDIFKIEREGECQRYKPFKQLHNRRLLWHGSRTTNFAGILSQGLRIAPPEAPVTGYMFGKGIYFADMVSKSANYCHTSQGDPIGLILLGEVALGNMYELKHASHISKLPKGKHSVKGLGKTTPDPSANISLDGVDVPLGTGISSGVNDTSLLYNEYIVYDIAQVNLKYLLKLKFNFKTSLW
Chain of Poly [ADP-ribose] polymerase 2 (Q9UGN5 whole entry): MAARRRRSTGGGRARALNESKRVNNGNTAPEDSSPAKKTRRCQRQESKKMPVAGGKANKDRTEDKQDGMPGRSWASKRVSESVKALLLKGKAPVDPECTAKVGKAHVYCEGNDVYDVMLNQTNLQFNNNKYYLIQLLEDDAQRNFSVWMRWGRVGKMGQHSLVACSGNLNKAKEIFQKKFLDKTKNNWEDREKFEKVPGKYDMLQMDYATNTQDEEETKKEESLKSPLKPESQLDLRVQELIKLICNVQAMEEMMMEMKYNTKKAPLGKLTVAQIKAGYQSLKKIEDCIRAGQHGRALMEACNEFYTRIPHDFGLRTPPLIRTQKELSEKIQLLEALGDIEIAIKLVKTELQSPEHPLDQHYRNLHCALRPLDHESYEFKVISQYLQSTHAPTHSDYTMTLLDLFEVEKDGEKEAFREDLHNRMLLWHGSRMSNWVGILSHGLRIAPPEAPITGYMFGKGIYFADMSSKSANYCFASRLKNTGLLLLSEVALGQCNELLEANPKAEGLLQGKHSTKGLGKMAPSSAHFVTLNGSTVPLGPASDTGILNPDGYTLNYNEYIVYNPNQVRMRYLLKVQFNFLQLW

IC50 [1]	IC50 [4]	IC50 [5]	IC50 [6]	IC50 [7]	Compound	IC50 at 48 h [2]	selectivity ratio [3]	Activity [8]	Activity [9]	Activity [10]
13.2 µM	8.93 µM	25.1 µM			NC(=O)c1ccccc1OCc1cccc(NC(=O)Nc2cccc(Br)c2)c1	134 µM	12.5			
11.7 µM	20.7 µM	14 µM			NC(=O)c1ccccc1NCc1cccc(NC(=O)Cc2ccccc2Br)c1	69.4 µM	3.35			
35 µM	22.9 µM	17.2 µM			NC(=O)c1ccccc1NCc1cccc(NC(=O)c2ccccc2Br)c1	65.8 µM	2.88			
11.8 µM	45.2 µM	61.1 µM			NC(=O)c1ccccc1NCc1cccc(NC(=O)c2ccc(Cl)cc2)c1	563 µM	12.5			
45.5 µM	39.6 µM	> 100 µM			NC(=O)c1ccccc1OCc1cccc(NC(=O)c2cccc(Cl)c2)c1	419 µM	10.6			
13 µM	0.33 µM	33.3 µM	0.00128 µM	0.00436 µM	NC(=O)c1ccccc1OCc1cccc(NC(=O)c2ccc(Cl)cc2)c1	340 µM	1020			
14.9 µM	6.33 µM	16 µM			NC(=O)c1ccccc1OCc1cccc(NC(=O)Cc2cccc(Br)c2)c1	91.2 µM	14.4			
19.6 µM	5.86 µM	27.4 µM			NC(=O)c1ccccc1OCc1cccc(NC(=O)Cc2ccc(Cl)cc2)c1	286 µM	48.8			
64.9 µM	> 100 µM	> 100 µM			NC(=O)c1ccccc1OCc1cccc(NC(=O)c2cccc(Br)c2)c1	238 µM				
22.8 µM	23.4 µM	8.82 µM			NC(=O)c1ccccc1NCc1cccc(NC(=O)Cc2cccc(Br)c2)c1	129 µM	5.52			
9.14 µM	75.9 µM	> 100 µM			NC(=O)c1ccccc1NCc1cccc(NC(=O)Cc2cccc(Cl)c2)c1	77.2 µM	1.02			
13.7 µM	26.4 µM	39.3 µM			O=C(c1cc(Cc2n[nH]c(=O)c3ccccc23)ccc1F)N1CCN(C(=O)C2CC2)CC1 [OLAPARIB]	319 µM		Active	83.67%	16.33%
7.7 µM	7.87 µM	19.8 µM			NC(=O)c1ccccc1NCc1cccc(NC(=O)Nc2cccc(Br)c2)c1	154 µM	17.9			
9.69 µM	8.09 µM	8.11 µM			NC(=O)c1ccccc1OCc1cccc(NC(=O)Cc2ccccc2Br)c1	183 µM	22.6			
10 µM	5.69 µM	5.08 µM			NC(=O)c1ccccc1NCc1cccc(NC(=O)c2cccc(Br)c2)c1	73.5 µM	12.9			
9.14 µM	37.8 µM	31.7 µM			NC(=O)c1ccccc1NCc1cccc(NC(=O)c2ccccc2Cl)c1	105 µM	2.78			
7.86 µM	15.7 µM	20.2 µM			NC(=O)c1ccccc1NCc1cccc(NC(=O)Cc2ccc(Cl)cc2)c1	14 µM	0.9			
47 µM	60.1 µM	16.9 µM			NC(=O)c1ccccc1OCc1cccc(NC(=O)c2ccccc2Br)c1	161 µM	2.68			
18.1 µM	4.1 µM	30.8 µM			NC(=O)c1ccccc1OCc1cccc(NC(=O)Cc2ccc(Br)cc2)c1	78 µM	19			
14 µM	19.6 µM	8.71 µM			NC(=O)c1ccccc1NCc1cccc(NC(=O)Cc2ccc(Br)cc2)c1	51.3 µM	2.62			
22 µM	7.38 µM	5.48 µM			NC(=O)c1ccccc1OCc1cccc(NC(=O)Cc2cccc(Cl)c2)c1	72.2 µM	9.79			
36.4 µM	35.3 µM	11.6 µM			NC(=O)c1ccccc1OCc1cccc(NC(=O)c2ccccc2Cl)c1	131 µM	3.72			
18.7 µM	22.1 µM	12.7 µM			NC(=O)c1ccccc1OCc1cccc(NC(=O)Cc2ccccc2Cl)c1	98.7 µM	4.48			
44.5 µM	37.9 µM	37 µM			NC(=O)c1ccccc1NCc1cccc(NC(=O)c2ccc(Br)cc2)c1	60.2 µM	1.59			
29.4 µM	13.8 µM	10.7 µM			NC(=O)c1ccccc1NCc1cccc(NC(=O)Cc2ccccc2Cl)c1	65 µM	4.72			
45.4 µM	26.4 µM	62.4 µM			NC(=O)c1ccccc1NCc1cccc(NC(=O)c2cccc(Cl)c2)c1	200 µM	7.58			
